Measured values published in patent US10869465B2, “Transgenic mouse model of retinal vascular disease, method of making, and method of using” (OSAKA UNIVERSITY, priority 2017, dated 2020).

Legend:
Type in all cases: in vivo
[1] = test system: retina of the constitutively active Akt-Mer Tg mouse; experiment: Retinal vascular permeability, Evans blue leakage (Example 6); conditions: 4-OHT i.p. 10 μg/μl, 10 μl per day, 4th to 6th day after birth
Experimental: To the constitutively active Akt-Mer Tg mouse produced in Example 1, 10 μg/μl 4-OHT was intraperitoneally administered at a dose of 10 μl per day from the fourth day to the sixth day after birth (total dose was […]). On the seventh day after birth, 20 μl of Evans blue was intraperitoneally administered, and 1 hour after this, perfusion fixation from the heart was performed using 4% PFA, and then, the eyeball was removed. An image of the removed eyeball was obtained using an MZ16F stereoscopic microscope (Leica). A mouse to which 4-OHT was not administered was used as a control and subjected to the same treatment, and then an image was obtained.
Furthermore, for the purpose of evaluating the vascular permeability in a quantitative manner, the fluorescence intensity of Evans blue leaking from the retinal blood vessels was measured using an LSM710 confocal microscope (Zeiss) (***<0.001).

[2] = test system: retina of the constitutively active Akt-Mer Tg mouse; experiment: Retinal cryosection with Hoechst staining, retinal surface layer (Example 7); conditions: 4-OHT i.p. 100 μg/day×3 days; 7th day after birth; vs control
Experimental: To the constitutively active Akt-Mer Tg mouse produced in Example 1, 10 μg/μl 4-OHT was intraperitoneally administered at a dose of 10 μl per day from the fourth day to the sixth day after birth (total dose was 100 μg/day×3 days). On the seventh day after birth, perfusion fixation from the heart was performed using 4% PFA. The eyeball was removed, and then a retinal cryosection was produced. The nuclei were visualized through Hoechst staining, and an image was obtained using a microscope (Zeiss). A mouse to which 4-OHT was not administered was used as a control and subjected to the same treatment, and then an image was obtained.

[3] = test system: retina of the constitutively active Akt-Mer Tg mouse; experiment: Retina cup observation by optical microscope after persistent activation of Akt (Example 3); conditions: 4-OHT i.p. 100 μg/day×3 days, 4th to 6th day after birth; observed 7th day; vs mouse without 4-OHT
Experimental: In this example, an influence of the persistent activation of Akt on the retina in the constitutively active Akt-Mer Tg mouse produced in Example 1 was investigated. Here, the influence on the retina was confirmed by observing the retina of the constitutively active Akt-Mer Tg mouse in which Akt had been persistently activated using an optical microscope.
To the constitutively active Akt-Mer Tg mouse produced in Example 1, 10 μg/μl 4-OHT was intraperitoneally administered at a dose of 10 μl per day from the fourth day to the sixth day after birth (total dose was 100 μg/day×3 days). On the seventh day after birth, perfusion fixation from the heart was performed using 4% paraformaldehyde (abbreviated as “PFA” hereinafter). Then, a retinal cup was produced from the removed eyeball, and an optical micrograph showing the retina was obtained using MZ16F (Leica). A mouse to which 4-OHT was not administered was used as a control and subjected to the same treatment, and then an image was obtained.

[4] = test system: retina of the constitutively active Akt-Mer Tg mouse; experiment: Whole-mount immunostaining (anti PECAM-1) of the retina, retinal vascular morphology (Examples 4, 5)
Experimental: (§1) To the constitutively active Akt-Mer Tg mouse produced in Example 1, 10 μg/μl 4-OHT was intraperitoneally administered at a dose of 10 μl per day from the fourth day to the sixth day after birth (total dose was 100 μg/day×3 days). On the seventh day after birth, perfusion fixation from the heart was performed using 4% PFA, and then a retinal cup was produced from the removed eyeball. Fluorescent immunostaining using an anti PECAM-1 (platelet endothelial cell adhesion molecule-1: CD31) antibody was performed to stain vascular endothelial cells. Subsequently, a flat-mount image of the retina was obtained using AxioObserver (Zeiss). A mouse to which 4-OHT was not administered was used as a control and subjected to the same treatment, and then an image was obtained.
For the purpose of further investigating the retinal vascular morphology in detail, the vascular lengths and vascular diameters were measured. Specifically, regarding the vascular lengths, a distance from the peripheral edge of the optic papilla to the leading end of the extending blood vessel along a vein was measured using Photoshop CS5 software. The vascular lengths at four positions in one retina were measured and quantified. Regarding the arterial diameters and venous diameters, the thickness of arteries and veins located on the circumference of a circle with a radius of 1500 μm about the optical papilla was measured also using Photoshop CS5 software (**<0.01).
as §1, with “1, 1” for “1, 10”, “was 10” for “was 100”, “days). This dose was one tenth of the dose in the previous examples.” for “days).”, “was produced.” for “was produced from the removed eyeball.”, “PECAM-1 (CD31)” for “PECAM-1 (platelet endothelial cell adhesion molecule-1: CD31)”, “was performed, and” for “was performed to stain vascular endothelial cells. Subsequently,”
For the purpose of further investigating the retinal vascular morphology in detail, the number of microaneurysms was measured. Specifically, regarding the measurement of the number of microaneurysms, the number of microaneurysms in one retina was manually measured using the flat-mount image of the retina.

[5] = 4-OHT i.p. 100 μg/day×3 days, observed 7th day after birth, vs control

4-hydroxytamoxifen [4-OHT]
vascular permeability (leakage of Evans blue from blood vessels) ([1]; Evans blue i.p. on 7th day, 1 hour): the vascular permeability was increased
fluorescence intensity of Evans blue leaking from the retinal blood vessels ([1]; confocal microscope, ***<0.001 vs control): significantly larger than that in the control
swelling of overall retina, particularly the surface layer [2]: significantly swollen
retinal hemorrhage [3]: punctuate retinal hemorrhage was observed
number of microaneurysms in one retina (average) ([4]; 4-OHT i.p. 10 μg/day×3 days, 7th day after birth, hardly observed in control): 90
vascular network formation ([4]; 4-OHT i.p. 100 μg/day×3 days, 4th to 6th day after birth, observed 7th day, vs control): the formation of a dense vascular network was observed
formation of microaneurysms ([4]; 4-OHT i.p. 100 μg/day×3 days, observed 7th day after birth): the formation of microaneurysms, which have a varicose structure, was induced
extension of blood vessels [4, 5]: the extension of blood vessels was delayed compared with the control
vascular diameters (arteries, veins, capillaries) [4, 5]: the overall retinal blood vessels significantly expanded
formation of microaneurysms ([4]; low-concentration 4-OHT i.p. 10 μg/day×3 days, observed 7th day after birth): the formation of microaneurysms was also induced
